Tested on: 782815-120-R-J1-PDC complex spheroid viability
Test: Anticancer human tumor 782815-120-R-J1-PDC patient-derived colon adenocarcinoma cell line growth inhibition [RAS]
Conditions: for viability, T/C: stronger effect = lower value
Text: RAS pathway inhibitors in Combinations in Complex Spheroids
A high-throughput screen of multi-cell type tumor spheroids was designed to identify active combinations of RAS pathway inhibitors and targeted small molecules. Complex spheroids include a stromal component modeled by human endothelial cells (HUVEC) and fibroblasts modeled by human mesenchymal stem cells (MSCs). The concentration ranges selected for each drug and investigational agent were based upon clinically achievable concentrations if the clinical Cmax of the agent was known.
Compounds. The drugs and investigational agents: abemaciclib (NSC768073), cobimetinib (NSC768068), divarasib (GDC6063, NSC841802), docetaxel (NSC628503), GDC-1971 (RLY-1971, NSC841576), gemcitabine (NSC613327), inavolisib (NSC800729), ipatasertib (NSC767898), KB-0742 (NSC834161), MRTX-1133 (NSC836407), osimertinib (NSC779217), RMC-4630 (NSC839698), RMC-6236 (NSC851965), RMC-6291 (NSC852671), Ro-3306 (NSC812927), sapanisertib (NSC764658), SN-38 (NSC673596), staurosporine (NSC755774), SY5609 (NSC837396), and tovorafenib (DAY101, NSC766906), were obtained from the National Cancer Institute (NCI) Developmental Therapeutics Program Chemical Repository. The FDA-approved anticancer drug set is available from the NCI Developmental Therapeutics Program. […] The stock solutions were prepared in dimethyl sulfoxide (DMSO, Sigma-Aldrich, St. Louis, MO, cat. D2650) at 800-fold the tested concentration and stored at -70 degrees C prior to their use. All drugs and investigational agents were tested over a range starting from a high concentration at or near the clinical Cmax and decreasing in half-log increments. If the clinical Cmax for an agent had not been determined, the highest concentration tested was 10 microM.
Cell Culture. All cells were maintained in an incubator at 37 degrees C and 5% CO2 with 95% humidity. The PDC lines were cultured according to standard operating procedures established by the NCI PDMR. All PDCs were thawed and cultured in Matrigel-coated flasks prepared with a working solution of 1X Ham's F-12 nutrient mix, without supplementation (Invitrogen, Waltham, MA, cat. 11765054), 100 U/mL penicillin-streptomycin (Invitrogen, cat. 15140122), and 2.5% Matrigel (Corning Inc., Corning, NY, cat. 354248) for the first three passages. The 362531-283-R-J2-PDC and 782815-120-R-J1-PDC lines were cultured in 6C/Colon 1B media, which includes advanced DMEM/F-12 (Thermo Fisher Scientific, cat. 12634028), 10 mM HEPES (Thermo Fisher Scientific, cat. 15630080), 1X GlutaMAX supplement (Thermo Fisher Scientific, cat. 35050061), 0.1 mg/mL primocin (InvivoGen, San Diego, CA, cat. ant-pm-2), 10% defined fetal bovine serum, heat inactivated (HyClone Laboratories Inc., Logan, UT, cat. SH30070.03HI), 50% L-WRN conditioned media (ATCC, cat. CRL-3276), 1.25 mM N-Acetyl-L-cysteine (Sigma-Aldrich, cat. A9165), 10 mM nicotinamide (Sigma-Aldrich, cat. N0636), 1X B-27 supplement (Thermo Fisher Scientific, cat. 17504044), 1X N-2 supplement (Thermo Fisher Scientific, cat. 17502048), 50 ng/mL human EGF (Thermo Fisher Scientific, cat. PHG0311), and 10 microM Y-27632 dihydrochloride (Tocris Bioscience, cat. 1254). The K12877-001-R-J1-PDC line was cultured in 6I media, which includes all 6C/Colon 1B media plus 10 ng/mL human FGF-10 (PeproTech, cat. 100-26), 1 ng/mL human FGF-2 (PeproTech, cat. 100-18B), 1 µM prostaglandin E2 (Tocris Bioscience, cat. 2296), […] hydrocortisone (Sigma-Aldrich, cat. H4001), and […] bovine insulin (Sigma-Aldrich, cat. I6634). The K86415-001-R-J1-PDC line was cultured in 6D media, which includes all 6C/Colon 1B media components minus the L-WRN conditioned media. The 485176-168-R4-J1-PDC was cultured in PANC media, which includes all 6C/Colon 1B media plus 100 ng/mL human FGF-10 (PeproTech, cat. 100-26), 500 nM SB-431542 (Selleckchem, cat. S1067), and 10 nM gastrin (Tocris Bioscience, cat. 3006). […]
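Further: spheroids exposed to compounds for 7 days before reading.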
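Wherever viability, T/C is given: 100% = DMSO vehicle control viability.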

Question: How did the viability, T/C (compound 0.0316 µM) turn out when CC(=O)OC12COC1CC(O)C1(C)C(=O)C(O)C3=C(C)C(OC(=O)C(O)C(NC(=O)OC(C)(C)C)c4ccccc4)CC(O)(C(OC(=O)c4ccccc4)C21)C3(C)C (stereo unspecified) was run?
Answer: 35% [middle of 4 runs]

Question: And the viability, T/C (compound 0.1 µM)?
Answer: 33.6% [middle of 4 runs]

Question: What about the viability, T/C (compound 0.316 µM) of the same compound?
Answer: 25.9% [middle of 4 runs]

Question: And the viability, T/C (compound 1 µM)?
Answer: 27.1% [middle of 4 runs]

Question: And the viability, T/C (compound 3.16 µM)?
Answer: 27.9% [middle of 4 runs]

Question: What about the viability, T/C (compound 10 µM) of the same compound?
Answer: 33.1% [middle of 4 runs]

Question: What about the IC50 (curve of compound) of the same compound?
Answer: < 31.6 nM

Question: What does the source list for O=C(c1ccc(F)c(F)c1Nc1ccc(I)cc1F)N1CC(O)([C@@H]2CCCCN2)C1?
Answer: viability, T/C (compound 0.00316 µM): 91.5% [middle of 4 runs]; viability, T/C (compound 0.01 µM): 82.9% [middle of 4 runs]; viability, T/C (compound 0.0316 µM): 66.7% [middle of 4 runs]; viability, T/C (compound 0.1 µM): 38.3% [middle of 4 runs]; viability, T/C (compound 0.316 µM): 19.9% [middle of 4 runs]; viability, T/C (compound 1 µM): 3.13% [middle of 4 runs]; IC50 (curve of compound): 66 nM [middle of 4 runs]

Question: For CC(=O)OC12COC1CC(O)C1(C)C(=O)C(O)C3=C(C)C(OC(=O)C(O)C(NC(=O)OC(C)(C)C)c4ccccc4)CC(O)(C(OC(=O)c4ccccc4)C21)C3(C)C (stereo unspecified) + C=CC(=O)N1CCN(c2nc(OCC3CCCN3C)nc3c(F)c(-c4nc(N)cc(C)c4C(F)(F)F)c(Cl)cc23)C(C)C1, which IC50 (curve of first compound, second compound 0.00316 µM) is on record?
Answer: < 31.6 nM

Question: What about the IC50 (curve of first compound, second compound 0.01 µM) of the same compound?
Answer: < 31.6 nM

Question: And the IC50 (curve of first compound, second compound 0.0316 µM)?
Answer: < 31.6 nM

Question: And the IC50 (curve of first compound, second compound 0.1 µM)?
Answer: < 31.6 nM

Question: And the IC50 (curve of first compound, second compound 0.316 µM)?
Answer: < 31.6 nM

Question: What about the IC50 (curve of first compound, second compound 1 µM) of the same compound?
Answer: < 31.6 nM

Question: And the viability, T/C (second compound 0.00316 µM, first compound 0.0316 µM)?
Answer: 33.6%

Question: What about the viability, T/C (second compound 0.00316 µM, first compound 0.1 µM) of the same compound?
Answer: 31.1%

Question: What about the viability, T/C (second compound 0.00316 µM, first compound 0.316 µM) of the same compound?
Answer: 25.6%

Question: And the viability, T/C (second compound 0.00316 µM, first compound 1 µM)?
Answer: 23.6%

Question: And the viability, T/C (second compound 0.00316 µM, first compound 3.16 µM)?
Answer: 28.3%

Question: What about the viability, T/C (second compound 0.00316 µM, first compound 10 µM) of the same compound?
Answer: 33.2%

Question: And the viability, T/C (second compound 0.01 µM, first compound 0.0316 µM)?
Answer: 34.1%

Question: What about the viability, T/C (second compound 0.01 µM, first compound 0.1 µM) of the same compound?
Answer: 32%

Question: What about the viability, T/C (second compound 0.01 µM, first compound 0.316 µM) of the same compound?
Answer: 25.7%

Question: And the viability, T/C (second compound 0.01 µM, first compound 1 µM)?
Answer: 22.3%

Question: And the viability, T/C (second compound 0.01 µM, first compound 3.16 µM)?
Answer: 25%

Question: What about the viability, T/C (second compound 0.01 µM, first compound 10 µM) of the same compound?
Answer: 34.1%

Question: And the viability, T/C (second compound 0.0316 µM, first compound 0.0316 µM)?
Answer: 40%

Question: And the viability, T/C (second compound 0.0316 µM, first compound 0.1 µM)?
Answer: 24.2%

Question: And the viability, T/C (second compound 0.0316 µM, first compound 0.316 µM)?
Answer: 23.6%

Question: And the viability, T/C (second compound 0.0316 µM, first compound 1 µM)?
Answer: 27.6%

Question: What about the viability, T/C (second compound 0.0316 µM, first compound 3.16 µM) of the same compound?
Answer: 23.6%

Question: What about the viability, T/C (second compound 0.0316 µM, first compound 10 µM) of the same compound?
Answer: 34.7%

Question: And the viability, T/C (second compound 0.1 µM, first compound 0.0316 µM)?
Answer: 36.8%

Question: And the viability, T/C (second compound 0.1 µM, first compound 0.1 µM)?
Answer: 30.4%

Question: And the viability, T/C (second compound 0.1 µM, first compound 0.316 µM)?
Answer: 20.3%

Question: What about the viability, T/C (second compound 0.1 µM, first compound 1 µM) of the same compound?
Answer: 22.9%

Question: What about the viability, T/C (second compound 0.1 µM, first compound 3.16 µM) of the same compound?
Answer: 25%

Question: What about the viability, T/C (second compound 0.1 µM, first compound 10 µM) of the same compound?
Answer: 29.2%

Question: What about the viability, T/C (second compound 0.316 µM, first compound 0.0316 µM) of the same compound?
Answer: 37.4%

Question: And the viability, T/C (second compound 0.316 µM, first compound 0.1 µM)?
Answer: 27.4%

Question: What about the viability, T/C (second compound 0.316 µM, first compound 0.316 µM) of the same compound?
Answer: 25%

Question: And the viability, T/C (second compound 0.316 µM, first compound 1 µM)?
Answer: 23.5%

Question: What about the viability, T/C (second compound 0.316 µM, first compound 3.16 µM) of the same compound?
Answer: 28.4%

Question: What about the viability, T/C (second compound 0.316 µM, first compound 10 µM) of the same compound?
Answer: 29.6%

Question: What about the viability, T/C (second compound 1 µM, first compound 0.0316 µM) of the same compound?
Answer: 38.1%

Question: And the viability, T/C (second compound 1 µM, first compound 0.1 µM)?
Answer: 26.9%

Question: And the viability, T/C (second compound 1 µM, first compound 0.316 µM)?
Answer: 27.4%

Question: And the viability, T/C (second compound 1 µM, first compound 1 µM)?
Answer: 23.6%

Question: And the viability, T/C (second compound 1 µM, first compound 3.16 µM)?
Answer: 27.5%

Question: What about the viability, T/C (second compound 1 µM, first compound 10 µM) of the same compound?
Answer: 33.3%

Reference: PubChem BioAssay AID2060887 (Molecular Pharmacology Branch, DTP, NCI, 2025)
